Experimental data as given in the NIST ThermoML archive (doi:10.1021/je200098d).
Numbers after ± are expanded uncertainties.

Conditions: Liquid, Ebulliometric method (Recirculating still)

SMILES	vapor or sublimation pressure (324.4 K)	vapor or sublimation pressure (333.4 K)	vapor or sublimation pressure (340 K)	vapor or sublimation pressure (345.5 K)	vapor or sublimation pressure (350.1 K)	vapor or sublimation pressure (354.1 K)	vapor or sublimation pressure (357.7 K)	vapor or sublimation pressure (360.9 K)	vapor or sublimation pressure (363.8 K)	vapor or sublimation pressure (332.4 K)	vapor or sublimation pressure (341.4 K)	vapor or sublimation pressure (348.3 K)	vapor or sublimation pressure (353.9 K)	vapor or sublimation pressure (358.5 K)	vapor or sublimation pressure (362.6 K)	vapor or sublimation pressure (366.2 K)	vapor or sublimation pressure (369.4 K)	vapor or sublimation pressure (372.4 K)
CCc1ccccc1 [ethylbenzene]	5 ± 0.1 kPa	7.5 ± 0.1 kPa	10 ± 0.1 kPa	12.5 ± 0.1 kPa	15 ± 0.1 kPa	17.5 ± 0.1 kPa	20 ± 0.2 kPa	22.5 ± 0.2 kPa	25 ± 0.2 kPa									
C=Cc1ccccc1 [styrene]										5 ± 0.1 kPa	7.5 ± 0.1 kPa	10 ± 0.1 kPa	12.5 ± 0.1 kPa	15 ± 0.1 kPa	17.5 ± 0.1 kPa	20 ± 0.2 kPa	22.5 ± 0.2 kPa	25 ± 0.2 kPa
